Measurements as given in patent US20250122182A1 (Isosterix, Inc., priority 2023, published 2025).
Each block holds one compound with its values, some of them ahead of it.

Assays:
[1] = molecular target: Recombinant KAT6A/MOZ (488-778) protein (Homo sapiens (Human), UniProt Q92794); assay: KAT6A AlphaLISA Inhibition Screening Assay; assay type: biochemical; conditions: for inhibition at 1 µM: read-out: Average Kat6A % inhibition @ 1 μM; for inhibition at 1 µM / Average Kat6A % inhibition @ 1 μM: 1 μM test compound; for inhibition at 10 µM: read-out: Average Kat6A % inhibition @ 10 μM; for inhibition at 10 µM / Average Kat6A % inhibition @ 10 μM: 10 μM test compound
Recombinant KAT6A/MOZ (488-778) protein, sequence (Q92794 488-778): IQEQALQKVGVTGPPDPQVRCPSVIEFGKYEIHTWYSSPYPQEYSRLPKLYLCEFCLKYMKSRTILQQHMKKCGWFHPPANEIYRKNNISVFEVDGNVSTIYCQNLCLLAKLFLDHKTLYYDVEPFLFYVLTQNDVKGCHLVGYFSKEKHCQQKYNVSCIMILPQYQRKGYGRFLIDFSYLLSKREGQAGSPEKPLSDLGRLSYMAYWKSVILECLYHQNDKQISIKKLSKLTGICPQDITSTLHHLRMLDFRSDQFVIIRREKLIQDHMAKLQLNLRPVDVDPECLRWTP
Procedure, shortened: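 AlphaLISA read-out with anti-acetyl-lysine acceptor and streptavidin donor beads, % inhibition relative to vehicle. Reaction: biotinylated histone H3 1-21 (200 nM) and acetyl-CoA (400 nM) with KAT6A 488-778 (25 nM), 120 min at room temperature, pH 8.0, 330 nM TSA, after 60 or 10 min enzyme–compound pre-incubation; 10-point 3-fold series from 10 μM.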

ZR-75-1 cells = assay: Cell Titer-Glo Luminescent Cell Viability Assay in ZR-75-1 Cells; assay type: cell-based; conditions: compounds replenished every 48 hours till day 10, CellTiter-Glo
Procedure: The CellTiter-Glo® Luminescent Cell Viability Assay is a homogeneous method employed to determine the number of metabolically active cells in culture. On day 0, ZR-75-1 cells were detached completely from the culture flasks using 0.25% trypsin-EDTA (Catalog #25200056, Gibco). ZR-75-1 cells were seeded into white opaque-96 well culture plate (Catalog #6005680, Perkin Elmer) at a density of 1500 cells per well in 200 μL of RPMI 1640 medium (Catalog #A1049101, Gibco) supplemented with 10% Fetal Bovine Serum (Catalog #16000044, Gibco) and 1× Penicillin-Streptomycin (Catalog #15140122, Gibco). The plates were incubated at 37° C. with 5% CO2 for 24 hours. On day 1, the spent media was removed from each well of the plate and 180 μL of fresh RPMI 1640 complete media was added. Test compounds were diluted in 100% DMSO followed by complete media. 20 μL of media containing compounds were added to each well so that the final DMSO concentration was 0.5%. The test compounds were tested for 10 points DRC (10 μM top concentration, 3-fold dilution). The assay plates were incubated at 37° C. with 5% CO2 for 48 hours. The test compounds and media were replenished every 48 hours till day 10.
On day 10, the CellTiter-Glo® 2.0 reagent (Catalog #G9242, Promega) was thawed and equilibrated to room temperature. Assay plates were removed from the incubator and equilibrated to room temperature for about 30 minutes. 100 μL of spent media was removed from each well and then 50 μL of CellTiter-Glo® 2.0 Reagent was added. The plates were incubated on an orbital shaker at room temperature for 10 minutes to induce cell lysis and stabilize luminescent signal. The luminescent signal was recorded using Perkin Elmer Envision multi-mode plate reader. Percent cytotoxicity induced by test compounds was determined relative to vehicle control. EC50 value for test compounds was calculated using GraphPad Prism software (four parameter-variable slope equation).

inhibition at 1 µM [1]: 98%
inhibition at 10 µM [1]: 89%
Compound: CCc1ccc(OC)c(S(=O)(=O)Nc2noc3cc(Cn4cc(CNC(=O)OC)cn4)c(OC)cc23)c1 [Syn. Ex. 137, methyl ((1-((3-((5-ethyl-2-methoxyphenyl)sulfonamido)-5-methoxybenzo[d]isoxazol-6-yl)methyl)-1H-pyrazol-4-yl)methyl)carbamate]

Average Kat6A % inhibition @ 1 μM [1]: 111%
Average Kat6A % inhibition @ 10 μM [1]: 114%
Compound: COC(=O)NCc1cnn(Cc2cc3c4c(noc4c2)NS(=O)(=O)c2c(OC)cccc2OCCCCCO3)c1 [Syn. Ex. 138, methyl ((1-((14-methoxy-15,15-dioxido-6,7,8,9-tetrahydro-5H,16H-4,10,18-trioxa-15-thia-16,17-diazabenzo[11,12]cyclotetradeca[1,2,3-cd]inden-2-yl)methyl)-1H-pyrazol-4-yl)methyl)carbamate]

Average Kat6A % inhibition @ 1 μM [1]: 119%
Average Kat6A % inhibition @ 10 μM [1]: 114%
Compound: COC(=O)NCc1cnn(Cc2cc(OC)c3c(NS(=O)(=O)c4cc5c(cc4OC)CCCC5)noc3c2)c1 [Syn. Ex. 139, methyl ((1-((4-methoxy-3-((3-methoxy-5,6,7,8-tetrahydronaphthalene)-2-sulfonamido)benzo[d]isoxazol-6-yl)methyl)-1H-pyrazol-4-yl)methyl)carbamate]

inhibition at 1 µM [1]: 106%
inhibition at 10 µM [1]: 104%
Compound: CCc1ccc(S(=O)(=O)Nc2noc3cc(Cn4cc(CNC(=O)OC)cn4)c4c(c23)OCCC4)c(OC)c1 [Syn. Ex. 140, methyl ((1-((9-((4-ethyl-2-methoxyphenyl)sulfonamido)-3,4-dihydro-2H-chromeno[8,7-d]isoxazol-5-yl)methyl)-1H-pyrazol-4-yl)methyl)carbamate]

inhibition at 1 µM [1]: 104%
inhibition at 10 µM [1]: 91%
Compound: CCc1ccc(OC)c(S(=O)(=O)Nc2noc3cc(Cn4cc(CNC(=O)OC)cn4)c(F)c(OC)c23)c1 [Syn. Ex. 141, methyl ((1-((3-((5-ethyl-2-methoxyphenyl)sulfonamido)-5-fluoro-4-methoxybenzo[d]isoxazol-6-yl)methyl)-1H-pyrazol-4-yl)methyl)carbamate]

inhibition at 1 µM [1]: 110%
inhibition at 10 µM [1]: 99%
Compound: CCOc1cc2c(NS(=O)(=O)c3cc(CC)ccc3OC)noc2cc1Cn1cc(CNC(=O)OC)cn1 [Syn. Ex. 142, methyl ((1-((5-ethoxy-3-((5-ethyl-2-methoxyphenyl)sulfonamido)benzo[d]isoxazol-6-yl)methyl)-1H-pyrazol-4-yl)methyl)carbamate]

inhibition at 1 µM [1]: 108%
inhibition at 10 µM [1]: 108%
Compound: COC(=O)NCc1cnn(Cc2cc3onc(NS(=O)(=O)c4ccccc4OC)c3cc2OC)c1 [Syn. Ex. 145, methyl ((1-((5-methoxy-3-((2-methoxyphenyl)sulfonamido)benzo[d]isoxazol-6-yl)methyl)-1H-pyrazol-4-yl)methyl)carbamate]

Average Kat6A % inhibition @ 1 μM [1]: 101%
Average Kat6A % inhibition @ 10 μM [1]: 101%
Compound: COC(=O)NCc1cnn(Cc2cc3onc(NS(=O)(=O)c4cc5c(cc4OC)CCC5)c3cc2OC)c1 [Syn. Ex. 147, methyl ((1-((5-methoxy-3-((6-methoxy-2,3-dihydro-1H-indene)-5-sulfonamido)benzo[d]isoxazol-6-yl)methyl)-1H-pyrazol-4-yl)methyl)carbamate]

Average Kat6A % inhibition @ 1 μM [1]: 101%
Average Kat6A % inhibition @ 10 μM [1]: 102%
Compound: CCc1ccc(OC)c(S(=O)(=O)Nc2noc3cc(Oc4ncc(CNC(=O)OC)s4)c(OC)cc23)c1 [Syn. Ex. 149, methyl —{N}—[[2-[[3-[(5-ethyl-2-methoxy-phenyl)sulfonylamino]-5-methoxy-1,2-benzoxazol-6-yl]oxy]thiazol-5-yl]methyl]carbamate]

inhibition at 1 µM [1]: 101%
inhibition at 10 µM [1]: 103%
Compound: COc1cc2c(NS(=O)(=O)c3cc(C)ccc3OC)noc2cc1Cn1cc(CN)cn1 [Syn. Ex. 150, N-(6-((4-(aminomethyl)-1H-pyrazol-1-yl)methyl)-5-methoxybenzo[d]isoxazol-3-yl)-2-methoxy-5-methylbenzenesulfonamide]

Average Kat6A % inhibition @ 1 μM [1]: 115%
Average Kat6A % inhibition @ 10 μM [1]: 117%
Compound: N-[[2-[[4-methoxy-3-[(6-methoxyindan-5-yl)sulfonylamino]-1,2-benzoxazol-6-yl]oxy]thiazol-5-yl]methyl]carbamate [Syn. Ex. 148]

The remaining lines, values behind:

Compound: C#CC(=O)NCc1cnn(Cc2cc(OC)c3c(NS(=O)(=O)c4cc(C)c(C)cc4OC)noc3c2)c1 [Syn. Ex. 19, N-((1-((4-methoxy-3-((2-methoxy-4,5-dimethylphenyl)sulfonamido)benzo[d]isoxazol-6-yl)methyl)-1H-pyrazol-4-yl)methyl)propiolamide]
inhibition at 1 µM [1]: 100%
inhibition at 10 µM [1]: 98%
EC50 (ZR-75-1 cells; Homo sapiens): < 100 nM

Compound: C#CC(=O)NCc1cnn(Cc2cc(OC)c3c(NS(=O)(=O)c4cc5c(cc4OC)CCC5)noc3c2)c1 [Syn. Ex. 23, N-((1-((4-methoxy-3-((6-methoxy-2,3-dihydro-1H-indene)-5-sulfonamido)benzo[d]isoxazol-6-yl)methyl)-1H-pyrazol-4-yl)methyl)propiolamide]
Average Kat6A % inhibition @ 1 μM [1]: 100%
Average Kat6A % inhibition @ 10 μM [1]: 100%
EC50 (ZR-75-1 cells): < 100 nM

Compound: CC#CC(=O)NCc1cnn(Cc2cc(OC)c3c(NS(=O)(=O)c4ccc(OC)cc4OC)noc3c2)c1 [Syn. Ex. 46, N-((1-((3-((2,4-dimethoxyphenyl)sulfonamido)-4-methoxybenzo[d]isoxazol-6-yl)methyl)-1H-pyrazol-4-yl)methyl)but-2-ynamide]
inhibition at 1 µM [1]: 98%
inhibition at 10 µM [1]: 100%
EC50 (ZR-75-1 cells; Homo sapiens): 100 to 1000 nM

Compound: CCc1ccc(OC)c(S(=O)(=O)Nc2noc3cc(Cn4cc(CNC(=O)C(C)F)cn4)cc(OC)c23)c1 (stereo not drawn) [Syn. Ex. 47, N-((1-((3-((5-ethyl-2-methoxyphenyl)sulfonamido)-4-methoxybenzo[d]isoxazol-6-yl)methyl)-1H-pyrazol-4-yl)methyl)-2-fluoropropanamide]
inhibition at 1 µM [1]: 98%
inhibition at 10 µM [1]: 96%
EC50 (ZR-75-1 cells; Homo sapiens): 100 to 1000 nM

Compound: C=C(F)C(=O)NCc1ccc(Oc2cc(OC)c3c(NS(=O)(=O)c4cc(CC)ccc4OC)noc3c2)nc1 [Syn. Ex. 51, N-((6-((3-((5-ethyl-2-methoxyphenyl)sulfonamido)-4-methoxybenzo[d]isoxazol-6-yl)oxy)pyridin-3-yl)methyl)-2-fluoroacrylamide]
inhibition at 1 µM [1]: 89%
inhibition at 10 µM [1]: 100%
EC50 (ZR-75-1 cells; Homo sapiens): 100 to 1000 nM

Compound: COC(=O)NCc1cnn(Cc2cc(OC)c3c(NS(=O)(=O)c4cc(C(F)F)ccc4OC)noc3c2)c1 [Syn. Ex. 135, methyl ((1-((3-((5-(difluoromethyl)-2-methoxyphenyl)sulfonamido)-4-methoxybenzo[d]isoxazol-6-yl)methyl)-1H-pyrazol-4-yl)methyl)carbamate]
inhibition at 1 µM [1]: 96%
inhibition at 10 µM [1]: 97%

Compound: CCOc1cc(C)ccc1S(=O)(=O)Nc1noc2cc(Cn3cc(CNC(=O)OC)cn3)cc(OC)c12 [Syn. Ex. 136, methyl ((1-((3-((2-ethoxy-4-methylphenyl)sulfonamido)-4-methoxybenzo[d]isoxazol-6-yl)methyl)-1H-pyrazol-4-yl)methyl)carbamate]
inhibition at 1 µM [1]: 99%
inhibition at 10 µM [1]: 99%

Compound: C=C(F)C(=O)NCc1cnc(Oc2cc(OC)c3c(NS(=O)(=O)c4cc5c(cc4OC)CCC5)noc3c2)s1 [Syn. Ex. 143, 2-fluoro-N-((2-((4-methoxy-3-((6-methoxy-2,3-dihydro-1H-indene)-5-sulfonamido)benzo[d]isoxazol-6-yl)oxy)thiazol-5-yl)methyl)acrylamide]
Average Kat6A % inhibition @ 1 μM [1]: 101%
Average Kat6A % inhibition @ 10 μM [1]: 99%

Compound: C=C(F)C(=O)Nc1ccc(Oc2cc(OC)c3c(NS(=O)(=O)c4cc5c(cc4OC)CCC5)noc3c2)nc1 [Syn. Ex. 144, 2-fluoro-N-(6-((4-methoxy-3-((6-methoxy-2,3-dihydro-1H-indene)-5-sulfonamido)benzo[d]isoxazol-6-yl)oxy)pyridin-3-yl)acrylamide]
Average Kat6A % inhibition @ 1 μM [1]: 101%
Average Kat6A % inhibition @ 10 μM [1]: 99%

Compound: C=C(F)C(=O)NCc1cnn(Cc2cc3onc(NS(=O)(=O)c4ccccc4OC)c3cc2OC)c1 [Syn. Ex. 146, 2-fluoro-N-((1-((5-methoxy-3-((2-methoxyphenyl)sulfonamido)benzo[d]isoxazol-6-yl)methyl)-1H-pyrazol-4-yl)methyl) acrylamide]
Average Kat6A % inhibition @ 1 μM [1]: 99%
Average Kat6A % inhibition @ 10 μM [1]: 101%
